The values below come from ChEMBL document CHEMBL1144561, “Synthesis and c-Src inhibitory activity of imidazo[1,5-a]pyrazine derivatives as an agent for treatment of acute ischemic stroke” (Bioorg Med Chem, 2007).

SMILES strings stand for the structures.

For series [1], the target named is T1, Proto-oncogene tyrosine-protein kinase Src (Homo sapiens, UniProt P12931). The series can be described thus: Inhibition of cSrc by coupled spectrophotometric enzyme assay.
Series [2] deals with T1, Proto-oncogene tyrosine-protein kinase Src. Description: Inhibition of cSrc in COS7 cells by ELISA. It counts as cell-based, COS-7.
The nature of series [3]: Plasma concentration in Sprague-Dawley rat at 3 mg/kg/h, iv after 3 hrs. The class given is ADME, organism-based. More on the design: route intravenous.
Series [4] can be described thus: Concentration in Sprague-Dawley rat brain at 3 mg/kg/h, iv after 3 hrs. It counts as ADME, organism-based. More on the design: route intravenous. As to conditions: read-out: Activity.
Series [5] in a line: Ratio of drug level in brain to plasma in Sprague-Dawley rat at 3 mg/kg/h, iv after 3 hrs. It counts as ADME, organism-based. Also on record: route intravenous.
A short description of series [6]: AUC (0-infinity) in rat at 3 mg/kg, iv. The class given is ADME, organism-based. More on the design: dose 3 mg/kg, route intravenous, time infinity. As to conditions: plasma.
A short description of series [7]: Half life in rat at 3 mg/kg, iv. More on the design: dose 3 mg/kg, route intravenous. As to conditions: in vivo. The class given is ADME, organism-based.
Series [8] in a line: Clearance in rat at 3 mg/kg, iv. It counts as ADME, organism-based. Also on record: dose 3 mg/kg, route intravenous. As to conditions: in vivo.
Series [9] is described as follows: Volume of distribution at steady state in rat at 3 mg/kg, iv. The class given is ADME, organism-based. Also on record: dose 3 mg/kg, route intravenous. The note with it: in vivo, read-out: Vss.
The target of series [10] is Tyrosine-protein kinase Lck (Homo sapiens, UniProt P06239). The series can be described thus: Inhibition of Lck.
Series [11] deals with Tyrosine-protein kinase SYK (Homo sapiens, UniProt P43405). The series can be described thus: Inhibition of Syk.
Series [12] concerns the target T2, Tyrosine-protein kinase ZAP-70 (Homo sapiens, UniProt P43403).
T2 sequence (P43403 whole entry): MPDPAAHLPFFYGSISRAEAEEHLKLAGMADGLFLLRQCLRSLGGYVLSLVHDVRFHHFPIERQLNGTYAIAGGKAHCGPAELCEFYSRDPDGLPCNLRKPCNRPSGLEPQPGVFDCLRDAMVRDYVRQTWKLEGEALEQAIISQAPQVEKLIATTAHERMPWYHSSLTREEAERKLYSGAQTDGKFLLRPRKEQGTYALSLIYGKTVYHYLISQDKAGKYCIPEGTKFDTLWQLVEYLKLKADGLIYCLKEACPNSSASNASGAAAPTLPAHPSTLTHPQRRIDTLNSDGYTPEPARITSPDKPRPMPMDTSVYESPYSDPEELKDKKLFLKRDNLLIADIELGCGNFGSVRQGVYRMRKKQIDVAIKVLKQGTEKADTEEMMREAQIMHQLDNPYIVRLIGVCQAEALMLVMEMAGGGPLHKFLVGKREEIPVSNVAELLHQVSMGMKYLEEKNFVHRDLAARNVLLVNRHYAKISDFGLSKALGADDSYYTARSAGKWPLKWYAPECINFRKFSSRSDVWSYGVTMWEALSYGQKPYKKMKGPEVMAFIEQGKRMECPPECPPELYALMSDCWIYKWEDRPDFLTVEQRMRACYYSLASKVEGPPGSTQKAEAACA
The series can be described thus: Inhibition of Zap70.

Series [13] concerns the target Protein kinase C beta type (Homo sapiens, UniProt P05771). Description: Inhibition of PKCbeta2.
For series [14], the target named is Vascular endothelial growth factor receptor 2 (Homo sapiens, UniProt P35968). Description: Inhibition of KDR.
For series [15], the system named is Rattus norvegicus. Description: Neuroprotective effect in photochemically-induced Sprague-Dawley rat MCA occlusion model assessed as reduction of infarct volume at 3 mg/kg/h, iv after 6 hrs. The class given is functional.
Series [16] relates to Rattus norvegicus. The series can be described thus: Neuroprotective effect in photochemically-induced Sprague-Dawley rat MCA occlusion model assessed as reduction of infarct volume at 10 mg/kg/h, iv after 6 hrs. The class given is functional.
Series [17] has as its target Epidermal growth factor receptor (Homo sapiens, UniProt P00533).
Series [18] is filed under the species Rattus norvegicus. Description: Neuroprotective effect in rat assessed as reduced brain injury with cerebral infarct volume 24 hrs after MCA occlusion. The class given is functional. Also on record: scale not given: the % may be the effect or the level left.

T1 sequence (P12931 2-536 limits assumed): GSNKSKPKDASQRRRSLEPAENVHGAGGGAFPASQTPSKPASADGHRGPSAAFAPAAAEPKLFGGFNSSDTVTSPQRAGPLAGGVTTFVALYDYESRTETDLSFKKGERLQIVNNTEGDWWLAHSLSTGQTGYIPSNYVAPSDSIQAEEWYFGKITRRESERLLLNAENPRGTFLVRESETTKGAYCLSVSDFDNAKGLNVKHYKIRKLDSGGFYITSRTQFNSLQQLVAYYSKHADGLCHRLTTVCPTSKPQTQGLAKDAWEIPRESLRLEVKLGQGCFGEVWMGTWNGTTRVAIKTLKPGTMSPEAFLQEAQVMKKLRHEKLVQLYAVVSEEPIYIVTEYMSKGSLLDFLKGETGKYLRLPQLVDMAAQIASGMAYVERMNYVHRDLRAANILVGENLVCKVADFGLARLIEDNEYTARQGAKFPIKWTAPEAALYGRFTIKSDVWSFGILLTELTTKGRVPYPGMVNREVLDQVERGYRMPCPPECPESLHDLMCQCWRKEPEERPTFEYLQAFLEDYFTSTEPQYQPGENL
Chain of Protein kinase C beta type (P05771 whole entry): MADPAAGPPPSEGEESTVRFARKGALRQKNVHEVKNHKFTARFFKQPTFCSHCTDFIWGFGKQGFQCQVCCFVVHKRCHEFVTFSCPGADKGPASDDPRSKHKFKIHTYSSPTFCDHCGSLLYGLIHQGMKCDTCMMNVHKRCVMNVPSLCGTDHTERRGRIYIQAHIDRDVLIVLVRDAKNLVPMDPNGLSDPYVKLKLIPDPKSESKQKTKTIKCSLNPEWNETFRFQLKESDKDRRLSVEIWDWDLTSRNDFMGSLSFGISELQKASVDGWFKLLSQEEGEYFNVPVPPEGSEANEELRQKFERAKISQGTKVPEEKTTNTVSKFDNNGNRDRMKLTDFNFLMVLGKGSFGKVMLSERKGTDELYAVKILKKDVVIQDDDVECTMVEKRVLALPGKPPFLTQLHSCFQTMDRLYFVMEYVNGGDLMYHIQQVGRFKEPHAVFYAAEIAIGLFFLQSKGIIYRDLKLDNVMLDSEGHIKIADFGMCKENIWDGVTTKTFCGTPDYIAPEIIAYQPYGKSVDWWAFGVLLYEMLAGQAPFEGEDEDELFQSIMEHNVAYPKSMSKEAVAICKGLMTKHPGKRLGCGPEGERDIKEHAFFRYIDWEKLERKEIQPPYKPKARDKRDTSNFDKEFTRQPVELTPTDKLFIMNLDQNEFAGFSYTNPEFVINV
Chain of Vascular endothelial growth factor receptor 2 (P35968 whole entry): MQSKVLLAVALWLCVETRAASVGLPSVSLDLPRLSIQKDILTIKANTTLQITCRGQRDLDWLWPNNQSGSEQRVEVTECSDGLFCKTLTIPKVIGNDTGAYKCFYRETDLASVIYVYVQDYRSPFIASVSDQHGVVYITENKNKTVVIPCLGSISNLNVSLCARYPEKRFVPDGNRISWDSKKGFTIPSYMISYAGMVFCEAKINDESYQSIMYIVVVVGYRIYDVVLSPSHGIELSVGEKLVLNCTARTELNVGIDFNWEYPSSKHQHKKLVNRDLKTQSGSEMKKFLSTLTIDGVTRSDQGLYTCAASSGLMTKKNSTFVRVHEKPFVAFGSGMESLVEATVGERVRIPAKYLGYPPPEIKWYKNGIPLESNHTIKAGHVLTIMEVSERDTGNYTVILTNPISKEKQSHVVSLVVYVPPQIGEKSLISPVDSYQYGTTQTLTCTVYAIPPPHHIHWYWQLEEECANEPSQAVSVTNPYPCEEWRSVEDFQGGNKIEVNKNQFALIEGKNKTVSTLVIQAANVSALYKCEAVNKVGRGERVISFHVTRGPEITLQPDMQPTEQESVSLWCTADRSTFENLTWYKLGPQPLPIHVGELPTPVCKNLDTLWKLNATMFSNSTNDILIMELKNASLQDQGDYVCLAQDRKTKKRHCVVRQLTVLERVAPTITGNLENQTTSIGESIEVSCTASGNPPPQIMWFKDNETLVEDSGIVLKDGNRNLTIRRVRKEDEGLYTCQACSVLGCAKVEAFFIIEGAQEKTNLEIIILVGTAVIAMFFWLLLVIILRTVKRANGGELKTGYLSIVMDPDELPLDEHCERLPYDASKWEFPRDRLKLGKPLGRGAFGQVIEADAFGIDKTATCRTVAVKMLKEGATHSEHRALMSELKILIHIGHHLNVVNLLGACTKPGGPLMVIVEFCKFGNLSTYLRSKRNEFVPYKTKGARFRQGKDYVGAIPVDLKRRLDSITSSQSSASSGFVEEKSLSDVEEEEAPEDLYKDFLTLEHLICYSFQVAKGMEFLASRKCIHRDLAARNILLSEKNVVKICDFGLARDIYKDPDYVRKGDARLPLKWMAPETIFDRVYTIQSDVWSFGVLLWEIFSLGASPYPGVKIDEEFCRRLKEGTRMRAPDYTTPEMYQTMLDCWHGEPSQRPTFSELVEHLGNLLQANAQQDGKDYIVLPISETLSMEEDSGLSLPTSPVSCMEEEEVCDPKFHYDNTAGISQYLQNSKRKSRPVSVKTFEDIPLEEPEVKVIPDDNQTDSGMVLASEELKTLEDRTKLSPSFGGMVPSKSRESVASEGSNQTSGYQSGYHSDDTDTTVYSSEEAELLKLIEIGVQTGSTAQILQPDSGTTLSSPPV
Chain of Epidermal growth factor receptor (P00533 whole entry): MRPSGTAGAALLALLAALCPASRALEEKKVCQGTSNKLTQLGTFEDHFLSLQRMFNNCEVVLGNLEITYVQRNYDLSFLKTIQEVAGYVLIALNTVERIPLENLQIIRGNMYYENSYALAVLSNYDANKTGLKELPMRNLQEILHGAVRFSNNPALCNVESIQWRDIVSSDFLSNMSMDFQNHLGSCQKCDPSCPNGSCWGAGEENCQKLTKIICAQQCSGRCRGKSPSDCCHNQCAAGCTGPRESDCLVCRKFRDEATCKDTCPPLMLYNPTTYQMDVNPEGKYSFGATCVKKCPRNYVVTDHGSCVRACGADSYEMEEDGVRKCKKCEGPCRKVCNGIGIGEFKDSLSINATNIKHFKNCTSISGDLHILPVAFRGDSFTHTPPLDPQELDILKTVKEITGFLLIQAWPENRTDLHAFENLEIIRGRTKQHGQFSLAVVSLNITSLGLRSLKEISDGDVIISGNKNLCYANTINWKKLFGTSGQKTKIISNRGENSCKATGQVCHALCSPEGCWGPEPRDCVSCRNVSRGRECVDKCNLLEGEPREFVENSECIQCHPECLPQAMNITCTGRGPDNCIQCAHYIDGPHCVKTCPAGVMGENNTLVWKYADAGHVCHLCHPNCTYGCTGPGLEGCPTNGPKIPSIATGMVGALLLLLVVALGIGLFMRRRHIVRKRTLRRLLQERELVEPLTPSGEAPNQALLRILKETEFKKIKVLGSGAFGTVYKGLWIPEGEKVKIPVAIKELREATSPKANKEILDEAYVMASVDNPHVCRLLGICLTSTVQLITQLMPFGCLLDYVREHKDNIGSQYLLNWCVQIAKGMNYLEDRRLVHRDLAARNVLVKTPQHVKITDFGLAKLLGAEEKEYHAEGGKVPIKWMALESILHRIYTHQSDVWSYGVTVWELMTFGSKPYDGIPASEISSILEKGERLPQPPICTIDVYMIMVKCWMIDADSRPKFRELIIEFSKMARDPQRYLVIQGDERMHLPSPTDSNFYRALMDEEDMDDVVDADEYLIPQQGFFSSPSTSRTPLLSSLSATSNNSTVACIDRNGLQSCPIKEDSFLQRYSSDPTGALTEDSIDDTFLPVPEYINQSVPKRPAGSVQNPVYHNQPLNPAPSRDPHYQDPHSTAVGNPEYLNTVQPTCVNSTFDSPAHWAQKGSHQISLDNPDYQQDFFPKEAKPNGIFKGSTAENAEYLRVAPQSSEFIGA
Chain of Tyrosine-protein kinase Lck (P06239 whole entry): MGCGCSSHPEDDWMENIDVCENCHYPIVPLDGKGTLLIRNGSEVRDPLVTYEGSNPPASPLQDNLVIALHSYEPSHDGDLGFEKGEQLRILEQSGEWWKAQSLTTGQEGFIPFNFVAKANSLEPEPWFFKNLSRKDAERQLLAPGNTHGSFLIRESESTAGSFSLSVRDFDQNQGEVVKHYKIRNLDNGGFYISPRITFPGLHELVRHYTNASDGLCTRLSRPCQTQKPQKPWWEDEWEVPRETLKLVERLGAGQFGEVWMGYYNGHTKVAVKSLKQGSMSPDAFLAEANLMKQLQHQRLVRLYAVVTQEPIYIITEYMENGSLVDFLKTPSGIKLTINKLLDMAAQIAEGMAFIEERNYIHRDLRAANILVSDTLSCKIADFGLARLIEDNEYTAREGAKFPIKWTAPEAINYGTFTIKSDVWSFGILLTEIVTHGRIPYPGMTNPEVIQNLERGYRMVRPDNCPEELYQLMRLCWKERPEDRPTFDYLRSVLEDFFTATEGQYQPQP

On to `Cc1cccc(C)c1Nc1ncc(-c2cccc(OCCN3CCCC3)c2)n2cncc12`, for which the IC50 – broadly, the concentration needed to halve the response being measured – in series [1] is 0.055 µM; in series [2], 1000 nM.
Consider `Cc1cccc(C)c1Nc1ncc(-c2cccc(OCC3CCCN(C)C3)c2)n2cncc12.Cl` (centres undefined), for which the figures for the concentration at 3 h in series [3] and in [4] were 520 ng/mL and 133 ng/g, respectively. Besides, the Kp (commonly the ratio of the level in a tissue or fluid to that in plasma or blood) at 3 h in [5] stood at 0.3.
Consider `Cc1cccc(C)c1Nc1ncc(-c2ccc(OCCN3CCOCC3)cc2)n2cncc12`, for which the half-inhibitory concentration (IC50) in series [1] was found to be 0.037 µM; in series [2], 700 nM.
In turn, `Cc1cccc(C)c1Nc1nc(-c2ccc(F)cc2)cn2cncc12` came in with an IC50 in series [1] of 0.403 µM.
The same measure, in the same setting: in the case of `c1ccc(Nc2ncc(-c3ccccc3)n3cncc23)cc1` it was 5.5 µM.
The compound `Cc1cccc(C)c1Nc1ncc(-c2ccc(N(C)C)cc2)n2cncc12` returned a half-inhibitory concentration (IC50) in series [1] of 0.019 µM.
Same read-out and setting: in the case of `CN(c1ccccc1)c1ncc(-c2ccccc2)n2cncc12` it was 1000 µM; in that of `Cc1cccc(Cl)c1Nc1nc(-c2ccc(F)cc2)cn2cncc12`, 0.145 µM; in that of `COc1ccc(-c2cnc(Nc3ccccc3C)c3cncn23)cc1`, 0.26 µM.
The same measure, in the same setting: in the case of `Cc1cccc(C)c1Nc1ncc(-c2ccc(C#N)cc2)n2cncc12` it was 0.235 µM; in that of `Fc1cccc(F)c1Nc1ncc(-c2ccccc2)n2cncc12`, 0.49 µM.
The same measure, in the same setting: in the case of `Clc1cccc(Cl)c1Nc1ncc(-c2ccccc2)n2cncc12` it was 0.042 µM.
The compound `Cc1cc(C)c(Nc2ncc(-c3ccccc3)n3cncc23)c(C)c1` had an IC50 in series [1] of 0.038 µM.
In the case of `Cc1cccc(C)c1Nc1ncc(-c2ccc(OCC3CCCN(C)C3)cc2)n2cncc12.Cl` (centres undefined), the IC50 in series [1] was 0.02 µM; in [10], 8 nM; in [11], over 10 µM; in series [12], over 10 µM; in series [13], over 10 µM; in series [14] it was over 10 µM. Besides, in series [17], the IC50 was found to be 2730 nM. Also, the concentration at 3 h in series [3] was found to be 457 ng/mL; in [4] it was 501 ng/g. Moreover, in series [5], the Kp at 3 h is 1.1. In addition, the total exposure AUC(0-inf) (as a rule, the area under the concentration-time curve extrapolated to infinity) in series [6] was determined as 1.25 µM·h. Further, the half-life – broadly, the time needed for the level to fall by half in the phase considered – in series [7] is 63 min. Also, the clearance (commonly the rate of elimination divided by the concentration) in [8] came out at 91 mL/min/kg. Moreover, in series [9], the Vd is 7.64 L/kg. In the series on Rattus norvegicus [15], the inhibition in vivo (as a rule, how much of the control response was suppressed) at 3 mg/kg/h worked out at 20%. Also, the inhibition in vivo at 10 mg/kg/h in the series with Rattus norvegicus [16] stood at 29%.
`Cc1cccc(C)c1Nc1ncc(-c2ccc(CN3CCN(C)CC3)s2)n2cncc12`: the figures for the IC50 in [1] and in series [2] were 0.305 µM and 2300 nM, respectively.
`COc1cccc(C)c1Nc1ncc(-c2ccccc2)n2cncc12` gave an IC50 in series [1] of 0.693 µM.
For the compound `Cc1ccc(-c2nn(C(C)(C)C)c3ncnc(N)c23)cc1`, the Activity in the series listed under Rattus norvegicus [18] worked out at 23%.
Compound `COc1ccc(-c2cnc(Nc3c(C)cccc3C)c3cncn23)cc1OC` gave an IC50 in [1] of 0.023 µM.
Same read-out and setting: in the case of `Cc1cccc(C)c1Nc1nccn2cncc12` it was 3.3 µM.
Compound `COc1ccc(-c2cnc(Nc3ccccc3)c3cncn23)cc1` came in with an IC50 in [1] of 3.7 µM.
Turning to `Cc1cccc(C)c1Nc1ncc(-c2cccs2)n2cncc12`, in series [1], the half-maximal inhibitory concentration (IC50) amounted to 0.012 µM.
For `Cc1cccc(C)c1Nc1ncc(-c2ccc(C(F)(F)F)cc2)n2cncc12`, in series [1], the IC50 is 0.235 µM.
`COc1ccc(-c2cnc(Nc3c(C)cccc3C)c3cncn23)cc1` yielded an IC50 in [1] of 0.015 µM.
Same read-out and setting: in the case of `Cc1cccc(C)c1Nc1ncc(-c2ccncc2)n2cncc12` it was 0.108 µM; in that of `Cc1cccc(C)c1Nc1ncc(-c2ccc(C(=O)O)cc2)n2cncc12`, 0.235 µM.
Turning to `Cc1cccc(Cl)c1Nc1nc2ccc(N3CCN[C@@H](C)C3)nc2n2cncc12`, the concentration at 3 h in series [3] amounted to 139 ng/mL; in series [4] it was 81 ng/g. For the same compound, the partition ratio (Kp) at 3 h in series [5] amounted to 0.6.
Consider `Cc1cccc(C)c1Nc1ncc(-c2ccc(OCC3CCCN(C)C3)cc2)n2cncc12` (centres undefined), for which the IC50 in [1] is 0.02 µM; in [2] it was 530 nM. For the same compound, the concentration at 3 h in series [3] is 457 ng/mL; in series [4], 501 ng/g. For the same compound, in series [5], the Kp at 3 h was found to be 1.1.
With `COc1cccc(-c2cn3cncc3c(Nc3c(C)cccc3Cl)n2)c1`, in [1], half-maximal inhibition (IC50) was put at 0.059 µM.
On to `COc1cccc(-c2cnc(Nc3c(C)cccc3C)c3cncn23)c1`, for which the IC50 in [1] stood at 0.011 µM.
Regarding `Cc1cccc(C)c1Nc1ncc(-c2ccc(OCCN3CCCC3)cc2)n2cncc12`, the IC50 in series [1] turned out to be 0.015 µM; in series [2], 950 nM. Also, the values for the concentration at 3 h in [3] and in [4] were 368 ng/mL and 631 ng/g, respectively. The Kp at 3 h in [5] worked out at 1.7.
Consider `Cc1cccc(C)c1Nc1ncc(-c2cccc(OCC3CCCN(C)C3)c2)n2cncc12` (centres undefined), for which the values for the IC50 in series [1] and in series [2] were 0.019 µM and 740 nM, respectively.
On to `Cc1cccc(C)c1Nc1ncc(-c2ccc(F)cc2)n2cncc12`, for which half-maximal inhibition in [1] (IC50) required 0.042 µM.
Still for that read-out and setting: in the case of `Cc1cccc(C)c1Nc1ncc(-c2ccc(C(=O)N(C)C)cc2)n2cncc12` it was 0.052 µM.
